Experimental data taken from patent US10561703B2, “Method of modulating sex hormone levels using a sex hormone secretion modulator” (GEMVAX & KAEL CO., LTD., priority 2013, dated 2020).

Tested on: Testosterone
Experiment: Testosterone level in blood (serum CLIA) after repeated sc PEP-1
Type: in vivo, SD rats
Protocol: PEP-1 (peptide of SEQ ID NO: 1), lyophilized white powder, obtained according to the method mentioned in example 1 was dissolved in 0.9% of saline, considering the correction factor of PEP-1 (purity: 94.13%, content: 92.36%, correction factor: 1.15). 50 mg/mL stock solution was further diluted into 20 mg/mL, 2 mg/mL, and 1 mg/mL with 0.9% saline, and stored at 4° C. for a week until the use.
The purpose of this example is to confirm the change of sexual hormones in blood from SD rats with 7 days repeated daily administration of SEQ ID NO: 1 peptide, PEP-1. This experiment followed the Ethics Regulation of Animal Test by KAMSI Inc. (Korea Animal Medical Science Institute). In addition, this experiment, Non-GLP experiment, referred to the MFDS (Ministry of Food and Drug Safety) notification; Agent 2013-40 (5th April 2013), Principles of Good Laboratory Practice (1997).
SPF Rats (Crlj:CD(SD)) were purchased from ORIENTBio Inc. (Mokdong-ri, Buk-myeon, Gapyeong-gun, Gyeonggi-do, Republic of Korea). 75 male (6.5 weeks old and 190˜210 g) and 75 female (6.5 weeks old and 160˜180 g) rats were monitored for 4 days, and 64 of male and female rats (each) were selected for the experiment. Raising condition is as follows; 23±3° C. of temperature, […] of relative humidity, 10˜20 times/hr of number of air changes, 12 hours (8 a.m.˜8 p.m.) of lighting with 150˜300 Lux of intensity.
64 male and female […] (mentioned above) were divided into 8 groups. Administration regimen, for example, drugs, routes, dosages, and volumes were as follows:
The detailed administration regimen is as follows; once a day, twice a day and twice a week in each experimental group. Injection initiated at 10 a.m. every day, and each rat was injected at one minute intervals. Rats in Group 9, 10, 13 and 14 were injected twice a week. Administration of high dose test agent preceded that of low dose. The volume of injection was calculated using recently measured weight of rats, and it was 5 mL/kg. Subcutaneous injection was performed as follows; assistant tilted the back of rat upward, and experimenter sterilized the back of rat with 70% alcohol, followed by subcutaneous injection of test agent with 26 G syringe.
1.4 mL of blood sample (0.7 mL of serum) was collected after measurement of weight (Day 0). Next day (1 Day), 1.4 mL of blood sample (0.7 mL of serum) was collected twice after injection of test agent (4 hrs and 8 hrs after administration of test agent). For next 6 days (Day 2˜Day 7), 1.4 mL of blood was extracted once everyday (4 hours after injection of test agent). Dose and volume of test agent of each group followed the Table 3, and injection time zone was same every day. Blood was extracted from the jugular vein, and left at room temperature for 30 minutes. Serum was separated using centrifugation (10,000 rpm for 5 minutes), and stored at −70±5° C. in Deep freezer until the use. Blood extraction from each subject was done in the same time zone every day.
A CLIA (Chemi-Luminescence Immune Assay) Kit was used to analyze Testosterone, Estradiol E2, FSH (Follicle stimulating hormone), and LH (Luteinizing hormone). Analysis was completed within 48 hrs after blood extraction (Laboratory Medicine Department, Chung-Ang University Hospital), and detailed method is as follows; One-way ANOVA was used to verify the comparison between the vehicle and PEP-1, and between different doses of PEP-1. For further analysis, Duncan test was used as parametric test and Dunnett's test as non-parametric test. p<0.05 represents the statistical significance, and all statistical analysis was carried out with SPSS 10.1.
Testosterone was analyzed using the samples prepared from example 2. 15 μL of serum was used for analysis. Fundamentals of analysis is competitive immunoassay based on direct chemi-luminescent. As mentioned in example 2, CLIA (Chemi-luminescence immune assay) Kit was used for Testosterone analysis, following the manufacture's protocol. […]

With “EARPALLTSRLRFIPK (listed as Homo sapiens) [PEP-1, hormone secretion modulator / GnRH analog]” the “Testosterone level in blood” value (G11 Female 100 mg/kg sc 1/day x7, 6 days) was 1.01 ng/dL, the “Testosterone level in blood” value (G11 Female 100 mg/kg sc 1/day x7, 7 days) was 1.25 ng/dL and the “Testosterone level in blood” value (G11 Female 100 mg/kg sc 1/day x7, pre) was 1.79 ng/dL. For the same sequence, the “Testosterone level in blood” value (G12 Male 100 mg/kg sc 1/day x7, 4 hr) was 0.08 ng/dL, the “Testosterone level in blood” value (G12 Male 100 mg/kg sc 1/day x7, 8 hr) was 0.01 ng/dL and the “Testosterone level in blood” value (G12 Male 100 mg/kg sc 1/day x7, 2 days) was 0.01 ng/dL. For the same sequence, the “Testosterone level in blood” value (G12 Male 100 mg/kg sc 1/day x7, 3 days) was 0.05 ng/dL, the “Testosterone level in blood” value (G12 Male 100 mg/kg sc 1/day x7, 4 days) was 0.17 ng/dL and the “Testosterone level in blood” value (G12 Male 100 mg/kg sc 1/day x7, 5 days) was 0.11 ng/dL. For the same sequence, the “Testosterone level in blood” value (G12 Male 100 mg/kg sc 1/day x7, 6 days) was 0.12 ng/dL, the “Testosterone level in blood” value (G12 Male 100 mg/kg sc 1/day x7, 7 days) was 0.12 ng/dL and the “Testosterone level in blood” value (G12 Male 100 mg/kg sc 1/day x7, pre) was 0.18 ng/dL. For the same sequence, the “Testosterone level in blood” value (G13 Female 100 mg/kg sc 2/week x2 (days 1,7), 4 hr) was 7.48 ng/dL, the “Testosterone level in blood” value (G13 Female 100 mg/kg sc 2/week x2 (days 1,7), 8 hr) was 6.34 ng/dL and the “Testosterone level in blood” value (G13 Female 100 mg/kg sc 2/week x2 (days 1,7), 2 days) was 0.97 ng/dL. For the same sequence, the “Testosterone level in blood” value (G13 Female 100 mg/kg sc 2/week x2 (days 1,7), 3 days) was 1.65 ng/dL, the “Testosterone level in blood” value (G13 Female 100 mg/kg sc 2/week x2 (days 1,7), 4 days) was 1.25 ng/dL and the “Testosterone level in blood” value (G13 Female 100 mg/kg sc 2/week x2 (days 1,7), 5 days) was 1.3 ng/dL. For the same sequence, the “Testosterone level in blood” value (G13 Female 100 mg/kg sc 2/week x2 (days 1,7), 6 days) was 2.54 ng/dL, the “Testosterone level in blood” value (G13 Female 100 mg/kg sc 2/week x2 (days 1,7), 7 days) was 12.35 ng/dL and the “Testosterone level in blood” value (G13 Female 100 mg/kg sc 2/week x2 (days 1,7), pre) was 1.71 ng/dL. For the same sequence, the “Testosterone level in blood” value (G14 Male 100 mg/kg sc 2/week x2 (days 1,7), 4 hr) was 0.07 ng/dL, the “Testosterone level in blood” value (G14 Male 100 mg/kg sc 2/week x2 (days 1,7), 8 hr) was 0.01 ng/dL and the “Testosterone level in blood” value (G14 Male 100 mg/kg sc 2/week x2 (days 1,7), 2 days) was 0.01 ng/dL. The “Testosterone level in blood” value (G14 Male 100 mg/kg sc 2/week x2 (days 1,7), 3 days) was 0.13 ng/dL, the “Testosterone level in blood” value (G14 Male 100 mg/kg sc 2/week x2 (days 1,7), 4 days) was 0.17 ng/dL and the “Testosterone level in blood” value (G14 Male 100 mg/kg sc 2/week x2 (days 1,7), 5 days) was 0.13 ng/dL. The “Testosterone level in blood” value (G14 Male 100 mg/kg sc 2/week x2 (days 1,7), 6 days) was 0.14 ng/dL, the “Testosterone level in blood” value (G14 Male 100 mg/kg sc 2/week x2 (days 1,7), 7 days) was 0.15 ng/dL and the “Testosterone level in blood” value (G14 Male 100 mg/kg sc 2/week x2 (days 1,7), pre) was 0.13 ng/dL. The “Testosterone level in blood” value (G15 Female 250 mg/kg sc 1/day x7, 4 hr) was 6.27 ng/dL, the “Testosterone level in blood” value (G15 Female 250 mg/kg sc 1/day x7, 8 hr) was 8.2 ng/dL and the “Testosterone level in blood” value (G15 Female 250 mg/kg sc 1/day x7, 2 days) was 3.77 ng/dL. The “Testosterone level in blood” value (G15 Female 250 mg/kg sc 1/day x7, 3 days) was 2.09 ng/dL, the “Testosterone level in blood” value (G15 Female 250 mg/kg sc 1/day x7, 4 days) was 0.8 ng/dL and the “Testosterone level in blood” value (G15 Female 250 mg/kg sc 1/day x7, 5 days) was 0.75 ng/dL. The “Testosterone level in blood” value (G15 Female 250 mg/kg sc 1/day x7, 6 days) was 1.27 ng/dL, the “Testosterone level in blood” value (G15 Female 250 mg/kg sc 1/day x7, 7 days) was 1.52 ng/dL and the “Testosterone level in blood” value (G15 Female 250 mg/kg sc 1/day x7, pre) was 1.65 ng/dL. For the same sequence, the “Testosterone level in blood” value (G16 Male 250 mg/kg sc 1/day x7, 4 hr) was 0.11 ng/dL, the “Testosterone level in blood” value (G16 Male 250 mg/kg sc 1/day x7, 8 hr) was 0.03 ng/dL and the “Testosterone level in blood” value (G16 Male 250 mg/kg sc 1/day x7, 2 days) was 0 ng/dL. The “Testosterone level in blood” value (G16 Male 250 mg/kg sc 1/day x7, 3 days) was 0.08 ng/dL, the “Testosterone level in blood” value (G16 Male 250 mg/kg sc 1/day x7, 4 days) was 0.18 ng/dL and the “Testosterone level in blood” value (G16 Male 250 mg/kg sc 1/day x7, 5 days) was 0.09 ng/dL. For the same sequence, the “Testosterone level in blood” value (G16 Male 250 mg/kg sc 1/day x7, 6 days) was 0.14 ng/dL, the “Testosterone level in blood” value (G16 Male 250 mg/kg sc 1/day x7, 7 days) was 0.12 ng/dL and the “Testosterone level in blood” value (G16 Male 250 mg/kg sc 1/day x7, pre) was 0.18 ng/dL. For the same sequence, the Testosterone level (female group, after injection of PEP-1) was 0.05 ng/dL, the “Effect on the Testosterone level” value (female rat) was “does not have significant effect” and the Testosterone level (male groups, Day 1, all groups injected with PEP-1) was 6 to 10 ng/dL. For the same sequence, the “Testosterone level, PEP-1 versus vehicle” value (male groups, after Day 3) was “no significant difference between PEP-1 and vehicle”.
